The values that follow come from article PMC10702411 (Nature structural & molecular biology, 2023).

The subject of data set [1] is D234A and E239A mutants of BIRC2BIR2. Put plainly: NMR and pulldown, BIRC2BIR2 D234A and E239A mutants. In kind it is binding, human. The note with it: NMR and pulldown (performed twice).
The next data set concerns BIRC2_3BIR D234A/D320A. Put plainly: pulldown, BIRC2_3BIR D234A/D320A. In kind it is binding, human. The note with it: D234A/D320A concurrently, performed twice.
Data set [2] concerns D320A and E325A mutants of BIRC2BIR3. Put plainly: NMR and pulldown, BIRC2BIR3 D320A and E325A mutants. In kind it is binding, human. The note with it: NMR and pulldown (performed twice).
Data set [3] has as its system BIRC2 and BIRC3 in HIV-TCM. Put plainly: western blot of BIRC2 and BIRC3, HIV-TCM. Type of data set: cell-based, human. The note with it: 100 nM LCL161, 4 h, n = 4. Background: A western blot detects proteins with antibodies after separation by electrophoresis.
For data set [4] the following is noted: cited from earlier work.
The subject of another data set is TCM. Put plainly: apoptosis / cell death read-outs, uninfected TCM. The note with it: LCL161, 4 h. Type of data set: cell-based, human.
The subject of a further data set is BIRC2 and BIRC3 in TCM. Put plainly: western blot of BIRC2 and BIRC3, uninfected TCM. In kind it is cell-based, human. The note with it: uninfected cells (TCM), 100 nM LCL161, 4 h; n = 4.
Data set [5] relates to mouse embryonic fibroblasts (MEFs). Put plainly: MTT survival assay, MEF. In kind it is cell-based. The note with it: LCL161 and/or TNF, 24 h, three independent biological replicates. Background: Formazan colour is commonly taken as a measure of viable cells.
In data set [6] the test system is HIV-TCM. Put plainly: LDH release assay, HIV-TCM. Type of data set: cell-based, human. The note with it: LCL161, 4 h, n = 4. (LDH leaks from cells whose membrane has failed.)
The test system of a further data set is FAS DISC in TCM. Put plainly: FAS DISC coimmunoprecipitation, TCM. The note with it: 100 nM LCL161, 4 h, co-IP, n = 4. In kind it is cell-based, human.
The subject of a further data set is RIPK1. Put plainly: RIPK1 ubiquitination and Ser166 phosphorylation. In kind it is cell-based, human. The note with it: 100 nM LCL161, 5 min (ubiquitination) or 4 h; n = 4.
The next data set relates to human glioma LN18 cells. Put plainly: MTT survival assay, LN18. Type of data set: cell-based. The note with it: LCL161 and/or TNF, 24 h, three independent biological replicates.
For data set [7], the system named is caspase-3 and PARP1 in HIV-TCM. Put plainly: western blot of caspase-3 and PARP1, HIV-TCM. In kind it is cell-based, human. The note with it: 100 nM LCL161, 4 h, n = 4.
Data set [8] relates to HIV-TCM. Put plainly: annexin V / propidium iodide flow cytometry, HIV-TCM. Type of data set: cell-based, human. The note with it: LCL161, Supplementary Fig. 8.
A further data set relates to cancer cells. The note with it: cited from earlier work.
In data set [9] the test system is HIV-TCM. Put plainly: HIV-1 p24 antigen release. Type of data set: cell-based. The note with it: Supplementary Fig. 7c,d.
Data set [10] concerns HIV-TCM. Put plainly: Cell Death Detection ELISA, HIV-TCM. In kind it is cell-based, human. The note with it: LCL161, 4 h, n = 4.
The test system of data set [11] is IFNγ stimulated ex vivo differentiated monocyte-derived macrophages. Put plainly: cytokine antibody array, macrophages. Type of data set: cell-based, human. The note with it: 10 μM embelin, IFNγ 24 h, supernatants; array in duplicate.
In another data set the target is BIRC2BIR3 (Homo sapiens, UniProt Q13490). Put plainly: X-ray crystal structure of BIRC2BIR3 complex. In kind it is binding. The note with it: Supplementary Fig. 2.
BIRC2BIR3, sequence (Q13490 261-346): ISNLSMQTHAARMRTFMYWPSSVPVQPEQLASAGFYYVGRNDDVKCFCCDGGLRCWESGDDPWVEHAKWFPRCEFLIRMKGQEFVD

Regarding “H3: N terminus of H3 (residues 1–22 of H3), histone peptide in pulldowns”, the “binding to mutant domain” value in data set [1] and in data set [2] was “abrogated binding” in each case. In the data set on BIRC2_3BIR D234A/D320A, the “binding to double mutant of triple BIR” value is “disrupt binding”.
Turning to `CN[C@@H](C)C(=O)N[C@H](C(=O)N1CCC[C@H]1c1nc(C(=O)c2ccc(F)cc2)cs1)C1CCCCC1` [LCL161], the “degradation of BIRC2 and BIRC3” value in [3] was “induced the rapid degradation of BIRC2 and BIRC3”. Moreover, the “antiproliferation and bioavailability properties” value in [4] (among SMAC mimetic compounds) is “one of the most promising antiproliferation and bioavailability properties”. Moreover, in data set [4], the pharmacological properties entry is “favorable pharmacological properties” and the toxicity entry is given as “minor toxicity”. The “apoptosis / LDH release in uninfected cells” value in the data set with TCM is listed as “not in the uninfected cells”. For the same molecule, in the data set with BIRC2 and BIRC3 in TCM, the “degradation of BIRC2 and BIRC3” value was “induced the rapid degradation of BIRC2 and BIRC3”. Moreover, in data set [5], the “sensitization to killing by TNF” value is “sensitized mouse embryonic fibroblasts (MEFs) and human glioma LN18 cells to killing by TNF”. Besides, the LDH release result in the data set on HIV-TCM [6] is “increase in lactate dehydrogenase (LDH) release”. The “association of FADD, cFLIPS and Ser166 phosphorylated RIPK1 with FAS” value in the data set on FAS DISC in TCM is reported as “did not associate with FAS”. The “RIPK1 deubiquitination, phosphorylation and activation” value in the data set with RIPK1 is “deubiquitination and Ser166 phosphorylation and thus activation of RIPK1”. Besides, the “sensitization to killing by TNF” value in the data set on human glioma LN18 cells was “sensitized mouse embryonic fibroblasts (MEFs) and human glioma LN18 cells to killing by TNF”. Moreover, the caspase-3 cleavage entry in data set [7] was “cleavage of caspase-3”. Moreover, in the data set on HIV-TCM [8], the phosphatidylserine translocation entry is on record as “translocation of phosphatidylserine from the inner to the outer leaflet” and the plasma membrane permeabilization result is on record as “permeabilization of the plasma membrane”. In addition, the anticancer activity result in the data set with cancer cells (at least two dozen tumor types) is “potent anticancer activity in at least two dozen tumor types”. Further, the “sensitization of cancer cells to chemotherapy” value in the data set with cancer cells (with cisplatin and vincristine) was “sensitizes cancer cells to conventional chemotherapy with cisplatin and vincristine”. In the data set with HIV-TCM [9], the “HIV-1 p24 antigen release” value is recorded as “not accompanied by an increase in HIV-1 p24 antigen release”. Also, the “cytoplasmic histone-associated DNA fragments” value in the data set with HIV-TCM [10] is “increase in cytoplasmic histone-associated DNA fragments”.
On to “H3T3ph: H3 peptide with phosphorylation of Thr3”, for which the “binding to mutant domain” value in data set [1] and in data set [2] was “abrogated binding” in each case.
Consider `CCCCCCCCCCCC1=C(O)C(=O)C=C(O)C1=O` [embelin], for which the “interleukin-6 (IL-6) level” value in [11] is “increase of interleukin-6 (IL-6)”.
Turning to ATPF [caspase-9], the “binding site in overlay of structures” value at BIRC2BIR3 is given as “occupy the same binding site of BIRC2BIR3”.
AVPI [SMAC]: at BIRC2BIR3, the “binding site in overlay of structures” value is “occupy the same binding site of BIRC2BIR3”.
